The values that follow come from patent publication US20160002247A1, “8-SUBSTITUTED IMIDAZOPYRIMIDINONE DERIVATIVE HAVING AUTOTAXIN INHIBITORY ACTIVITY” (THE UNIVERSITY OF TOKYO, priority 2013, published 2016).

Bounds are passed on as bounds.

In the first test the target is T1, Mouse autotaxin enzyme (Mus musculus, UniProt Q9R1E6).
T1 construct: purchased R&D System
Nature of the test: Evaluation of autotaxin inhibitor, Method A (Test Example 1): TG-mTMP fluorescence. It is filed as biochemical. Particulars: Assay Method: Method A (Test Example 1); read-out: Inhibitory Activity (Enzyme Inhibitory Activity, IC50). The method, then:
(Method A) Evaluation of Autotaxin Inhibitor
Solution A containing 25 mM Tris-HCl buffer (pH7.5), 100 mM NaCl, 5 mM MgCl2 and 0.1% BSA was prepared. Mouse autotaxin enzyme (purchased from R&D System) was diluted with Solution A, and 5 μL of which was added to a solution of test compound in DMSO. Furthermore, 5 μl of 0.5 μM TG-mTMP in Solution A was added and allowed to react at room temperature for 2 hours. 5 μl of 150 mM EDTA in Solution A was added to quench the reaction, and a fluorescent dye TokyoGreen, which was produced by the reaction, was detected. The fluorescence was detected using ViewLux (PerkinElmer, Inc.) with an excitation wavelength of 480 nm and a fluorescence wavelength of 540 nm.
The percent inhibition of the test compound was calculated by assuming the sample with no test compound as 0% inhibition and the sample with no enzyme as 100% inhibition, and the percent inhibitions at different concentrations of the test compound were plotted to obtain a concentration-dependent curve.
Broadly, the IC50 is the midpoint of a concentration-inhibition curve. On to `Cc1cc(=O)n2cc(-c3ccc(Cl)cc3)nc2n1C` [Compound 4], for which the IC50 was 100 to 1000 nM. On the same count and under the same terms, then `CCn1c(C)cc(=O)n2cc(-c3ccc(Cl)cc3)nc12` [Compound 5], with 10 to 100 nM. For `CCCn1c(C)cc(=O)n2cc(-c3ccc(Cl)cc3)nc12` [Compound 6], the half-inhibitory concentration (IC50) lay in the range of 10 to 100 nM. `CCCCCCCn1c(C)cc(=O)n2cc(-c3ccc(Cl)cc3)nc12` [Compound 9]: the 50% inhibitory concentration (IC50) was in the range of 10 to 100 nM. `CCCCCCCCn1c(C)cc(=O)n2cc(-c3ccc(Cl)cc3)nc12` [Compound 10]: the IC50 fell in the range of 10 to 100 nM. On the same count and under the same terms, the figure for `CCCCCCCCCn1c(C)cc(=O)n2cc(-c3ccc(Cl)cc3)nc12` [Compound 11] is 100 to 1000 nM; for `CCCCCCCCCCn1c(C)cc(=O)n2cc(-c3ccc(Cl)cc3)nc12` [Compound 12] it is 100 to 1000 nM; for `Cc1cc(=O)n2cc(-c3ccc(Cl)cc3)nc2n1C1CCCCC1` [Compound 14] it is 10 to 100 nM. `C=CCn1c(C)cc(=O)n2cc(-c3ccc(Cl)cc3)nc12` [Compound 15]: the 50% inhibitory concentration (IC50) lay within 10 to 100 nM.

On to `C#CCn1c(C)cc(=O)n2cc(-c3ccc(Cl)cc3)nc12` [Compound 16], for which the IC50 fell in the range of 10 to 100 nM. For the compound `CCCCCn1c(C)cc(=O)n2cc(-c3ccc(F)cc3)nc12` [Compound 17], the IC50 was 10 to 100 nM. Still for that read-out and setting: then `CCCCCn1c(C)cc(=O)n2cc(-c3ccc(C)cc3)nc12` [Compound 19], with 10 to 100 nM; and `COC(=O)Cn1c(C)cc(=O)n2cc(-c3ccc(Cl)cc3)nc12` [Compound 21], with 10 to 100 nM; and `Cc1cc(=O)n2cc(-c3ccc(Cl)cc3)nc2n1CC(=O)OCc1ccccc1` [Compound 22], with 10 to 100 nM.

Turning to `Cc1cc(=O)n2cc(-c3ccc(Cl)cc3)nc2n1CC(=O)OC(C)(C)C` [Compound 23], the IC50 fell in the range of 10 to 100 nM. As to `CCNC(=O)Cn1c(C)cc(=O)n2cc(-c3ccc(Cl)cc3)nc12` [Compound 24], the IC50 fell in the range of 100 to 1000 nM. The same measure, in the same setting: then `CCN(C)C(=O)Cn1c(C)cc(=O)n2cc(-c3ccc(Cl)cc3)nc12` [Compound 25], with 100 to 1000 nM; and `COCCOCCOCCn1c(C)cc(=O)n2cc(-c3ccc(Cl)cc3)nc12` [Compound 27], with over 1000 nM; and `CCOC(=O)Cn1c(C)cc(=O)n2cc(-c3ccc(F)cc3)nc12` [Compound 30], with 10 to 100 nM.

Regarding `CCOC(=O)Cn1c(C)cc(=O)n2cc(-c3ccc(Br)cc3)nc12` [Compound 31], the IC50 is 10 to 100 nM.

Take `CCOC(=O)Cn1c(C)cc(=O)n2cc(-c3ccc(OC)cc3)nc12` [Compound 32]: the half-inhibitory concentration (IC50) is 10 to 100 nM. Same read-out and setting: then `CCOC(=O)Cn1c(C)cc(=O)n2cc(-c3cccc(Br)c3)nc12` [Compound 33], with over 1000 nM; and `CCOC(=O)Cn1c(C)cc(=O)n2cc(-c3ccc(Cl)c(Cl)c3)nc12` [Compound 34], with 10 to 100 nM.

Regarding `CCOC(=O)Cn1c(C)cc(=O)n2cc(-c3ccccc3)nc12` [Compound 35], the IC50 was 10 to 100 nM. With `CCOC(=O)Cn1c(C)cc(=O)n2cc(-c3ccc([N+](=O)[O-])cc3)nc12` [Compound 36], the IC50 lay in the range of 10 to 100 nM. On the same count and under the same terms, the figure for `CCOC(=O)Cn1c(C)cc(=O)n2cc(-c3cccc([N+](=O)[O-])c3)nc12` [Compound 37] is 100 to 1000 nM. The same measure, in the same setting: then `CCOC(=O)Cn1c(C)cc(=O)n2cc(-c3ccc(N)cc3)nc12` [Compound 38], with over 1000 nM; and `CCOC(=O)Cn1c(C)cc(=O)n2cc(-c3cccc(N)c3)nc12` [Compound 39], with over 1000 nM. Regarding `CCOC(=O)Cn1c(C)cc(=O)n2cc(-c3ccc(I)cc3)nc12` [Compound 40], the IC50 fell in the range of 10 to 100 nM.

The target of a further test is T2, Human autotaxin enzyme (Homo sapiens, UniProt Q13822).
T2 construct: purchased R&D System
As to the kind of experiment: Evaluation of autotaxin inhibitor, Method B (Test Example 2): TG-mTMP fluorescence. Type of test: biochemical. Particulars: Assay Method B (Test Example 2), human autotaxin; read-out: Inhibitory Activity (autotaxin enzyme inhibitory activity, IC50 class). A digest of the protocol: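 Human autotaxin in Tris-HCl pH 7.5 buffer with NaCl, MgCl2 and 0.1% BSA was reacted with TG-mTMP (0.5 μM solution added) and test compound for 2 hours at room temperature.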
Take `CCCCCn1c(/C=C/c2ccccc2)cc(=O)n2cc(-c3ccc(Cl)cc3)nc12` [Compound 398]: the IC50 lay in the range of 10 to 100 nM.

Turning to `CCCCCn1c(-c2ccc(N(C)C)cc2)cc(=O)n2cc(-c3ccc(Cl)cc3)nc12` [Compound 399], the IC50 lay within 10 to 100 nM. As to `CCCCCn1c(-c2ccc(C#N)cc2)cc(=O)n2cc(-c3ccc(Cl)cc3)nc12` [Compound 400], the IC50 is under 10 nM. Same read-out and setting: then `CCCCCn1c(-c2ccc(C(=O)N(C)C)cc2)cc(=O)n2cc(-c3ccc(Cl)cc3)nc12` [Compound 402], with under 10 nM. The same measure, in the same setting: then `CCCCCn1c(-c2ccoc2)cc(=O)n2cc(-c3ccc(Cl)cc3)nc12` [Compound 403], with 10 to 100 nM. Still for that read-out and setting: then `CCCCCn1c(-c2ccc(COC)cc2)cc(=O)n2cc(-c3ccc(Cl)cc3)nc12` [Compound 404], with under 10 nM; and `CCCCCn1c(C2=CCCCC2)cc(=O)n2cc(-c3ccc(Cl)cc3)nc12` [Compound 408], with 10 to 100 nM.

In the case of `CCCCCn1c(-c2ccncc2)cc(=O)n2cc(-c3ccc(Cl)cc3)nc12` [Compound 410], the IC50 is under 10 nM. The same measure, in the same setting: then `CCCCCn1c(-c2ccc(O)cc2)cc(=O)n2cc(-c3ccc(Cl)cc3)nc12` [Compound 411], with under 10 nM. The same measure, in the same setting: the figure for `C/C=C/c1cc(=O)n2cc(-c3ccc(Cl)cc3)nc2n1CCCCC` [Compound 414] is 10 to 100 nM.

On to `CCCCCn1c(/C=C/C(C)(C)C)cc(=O)n2cc(-c3ccc(Cl)cc3)nc12` [Compound 415], for which the IC50 lay within 10 to 100 nM. As for `CCCCCn1c(-c2ccc(N3CCN(C)CC3)cc2)cc(=O)n2cc(-c3ccc(Cl)cc3)nc12` [Compound 416], the IC50 is under 10 nM.

On to `CCCCCn1c(-c2cc[nH]n2)cc(=O)n2cc(-c3ccc(Cl)cc3)nc12` [Compound 417], for which the half-inhibitory concentration (IC50) was 10 to 100 nM. Same read-out and setting: then `CCCCCn1c(-c2cscn2)cc(=O)n2cc(-c3ccc(Cl)cc3)nc12` [Compound 418], with 10 to 100 nM. Same read-out and setting: the figure for `CCCCCn1c(-c2ccc(NCC(C)C)nc2)cc(=O)n2cc(-c3ccc(Cl)cc3)nc12` [Compound 419] is under 10 nM; for `CCCCCn1c(-c2ccc(N(C)CC3CCCCO3)cc2)cc(=O)n2cc(-c3ccc(Cl)cc3)nc12` (centres unmarked) [Compound 420] it is 10 to 100 nM; for `CCCCCn1c(-c2ccc(N3CCOCC3)cc2)cc(=O)n2cc(-c3ccc(Cl)cc3)nc12` [Compound 421] it is 10 to 100 nM.

For the compound `CCCCCn1c(-c2ccc(N)cc2)cc(=O)n2cc(-c3ccc(Cl)cc3)nc12` [Compound 422], the IC50 is 10 to 100 nM. On the same count and under the same terms, the figure for `CCCCCn1c(/C=C/COC)cc(=O)n2cc(-c3ccc(Cl)cc3)nc12` [Compound 423] is 10 to 100 nM. With `CCCCCn1c(-c2cnc(N)cn2)cc(=O)n2cc(-c3ccc(Cl)cc3)nc12` [Compound 424], the IC50 was under 10 nM. Regarding `CCCCCn1c(-n2ccccc2=O)cc(=O)n2cc(-c3ccc(Cl)cc3)nc12` [Compound 426], the 50% inhibitory concentration (IC50) is under 10 nM.
